# Test results published in BindingDB's records for patent US11739093 (Revolution Medicines, 2023).
# Target: T1, Tyrosine-protein phosphatase non-receptor type 11 (Homo sapiens, UniProt Q06124)
# T1 sequence (Q06124 whole entry): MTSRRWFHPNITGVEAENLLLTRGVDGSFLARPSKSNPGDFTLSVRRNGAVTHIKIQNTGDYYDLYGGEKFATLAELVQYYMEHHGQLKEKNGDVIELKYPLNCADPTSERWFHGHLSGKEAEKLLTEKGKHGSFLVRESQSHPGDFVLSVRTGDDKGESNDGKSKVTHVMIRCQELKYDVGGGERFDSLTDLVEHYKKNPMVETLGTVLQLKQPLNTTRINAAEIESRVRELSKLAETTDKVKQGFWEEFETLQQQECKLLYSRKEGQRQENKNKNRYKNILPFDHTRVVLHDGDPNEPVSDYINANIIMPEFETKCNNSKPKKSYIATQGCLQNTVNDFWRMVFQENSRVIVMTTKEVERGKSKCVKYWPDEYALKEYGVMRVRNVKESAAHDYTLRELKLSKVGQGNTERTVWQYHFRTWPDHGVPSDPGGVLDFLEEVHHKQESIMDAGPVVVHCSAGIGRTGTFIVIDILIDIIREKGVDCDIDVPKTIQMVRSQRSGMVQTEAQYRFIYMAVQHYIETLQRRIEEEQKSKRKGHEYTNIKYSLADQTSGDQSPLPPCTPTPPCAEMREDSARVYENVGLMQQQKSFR
# Test: SHP2 Allosteric Inhibition Assay
# Description: The phosphatase reactions were performed at room temperature in 96-well black polystyrene plate, flat bottom, non-binding surface (Corning, Cat #3650) using a final reaction volume of 100 μL and the following assay buffer conditions: 50 mM HEPES, pH 7.2, 100 mM NaCl, 0.5 mM EDTA, 0.05% P-20, 1 mM DTT. The inhibition of SHP2 by compounds of the disclosure (concentrations varying from 0.00005-10 μM) was monitored using an assay in which 0.2 nM of SHP2 was incubated with 0.5 μM of Activating Peptide 1 (sequence: H2 N-LN(pY)IDLDLV(dPEG8)LST(pY)ASINFQK-amide) or Activating Peptide 2 (sequence: H2 N-LN(pY)AQLWHA(dPEG8)LTI(pY)ATIRRF-amide). After 30-60- minutes incubation at 25° C., the surrogate substrate DiFMUP (Invitrogen, Cat #D6567) was added to the reaction and activity was determined by a kinetic read using a microplate reader (Envision, Perkin-Elmer or Spectramax M5, Molecular Devices). The excitation and emission wavelengths were 340 nm and 450 nm, respectively. Initial rates were determined from a linear fit of the data, and the inhibitor dose response curves were analyzed using normalized IC50 regression curve fitting with control-based normalization.
structure (smiles),measurement,value
"Cc1nc(N2CCC3(CC2)CO[C@@H](C)[C@H]3N)c2ccnn2c1Sc1ccnc(N)c1Cl [US11739093, Compound 3]",IC50,34 nM
